Source: patent publication US6428816B1, “Carotenoid agent for inhibiting the conversion of epithelial cells to tumors” (Cognis Australia Pty., Ltd., priority 1992, dated 2002)
Entries after “also recorded” stand apart in the source; their conditions may differ.

Legend:
c-jun = assay: Northern analysis of c-jun RNA in melanocytes exposed to UV-B; type: cell-based, human; settings: for decrease of C-jun induction versus irradiated melanocytes in complete medium (TPA and IBMX) / RNA levels in the absence of the factor: FIG. 9; for decrease of C-jun induction versus irradiated melanocytes in complete medium (TPA and IBMX): medium without the factor (TPA 10 ng/ml or IBMX 0.1 mM) 24 hours, 100 mJ/cm^2 UVB, 1 hour after irradiation; for RNA levels in the absence of the factor: melanocytes not exposed to UVB
Description: Ultra-violet (“UV”) radiation can cause severe damage to cells, including genetic mutations, the promotion of cancer, and other adverse conditions. The potentially harmful effects for UV radiation for humans are mainly due to the UVB spectrum (ie, radiation having a wavelength of between 290 and 320 nanometers) (See: […], Soler N A Staff J S and Mihm M C Jr: “The human sunburn reaction: histologic and biochemical studies” J, Am. […] Another form of UV radiation is called “UVC”. UVC radiation in sunlight typically has a wavelength of the order of 254 nanometers. It is not as biologically relevant as UVB radiation however, because th UVC radiation in sunlight is strongly absorbed by the earth's ozone layer. accordingly, in the present study, we investigated the effects of UVB irradiation by melanocytes, and the changes to those effects by treating those cells with carotenoids. UVC wavelengths were blocked out of the experiments as the cells were incubated in plastic vessels. […] Wavelengths shorter than 280 nm wee cut off by keeping lids on tissue culture dishes. […] Total RNA was isolated by detergent lysis followed by phenol-chloroform extraction and ethanol precipitation. 15 micrograms of RNA was size-fractionated on denaturing formaldehyde/agarose gels and transferred to nylon filters by capillary blotting. […] After hybridization, filters were washed to a stringency of 0.5-0.1X SSC at 60° C. and autoradiographed at -80° C. for three to ten days using Fuji film. Autoradiographs are quantitated by densitometry using the GS-365 software (Hoefer Scientific). […] The c-fos probe was a 1.8 kb Xbo 1/Eco R I fragment from the plasmid BK 28 (Verma, 1988). The 185 probe was isolated by an EcoRI digest and isolation of the 5.6 kb fragment from the plasmid pB (Gonzalez, 1988). […] The 0.05 hour time indicates cells were harvested within 3 minutes following UV-B exposure. A “control” group received precisely the same treatment as the “treated” group, with the exception of being treated with beta-carotene.

c-fos = assay: Northern analysis of c-fos RNA in melanocytes exposed to UV-B; type: cell-based, human
Procedure: (§1) Normal human melanocytes were seeded into the appropriate vessel (6 well plate, 96 well plate, 75 cm or 175 cm flask) and allowed to grow to 50-60% confluency. […] The 0.05 hour time indicates cells were harvested within 3 minutes following UV-B exposure.

normal human melanocytes [1] = assay: DNA synthesis by tritiated thymidine incorporation in normal human melanocytes; type: cell-based; settings: for effect on DNA synthesis (percent tritiated thymidine incorporation): no UV
Procedure: FIGS. 1 and 5 refer to “Percent Tritiated Thymidine Incorporation” which is a measure of DNA synthesis activity.
(§2) Human neonatal foreskins were placed in 0.25% trypsin at 4° C. overnight. Following this incubation, the tissue was scraped to recover the melanocytes. The melanocytes were cultured in MCDB 151 (Sigma) medium containing 2% fetal calf serum, 0.3% bovine pituitary extract (Clonetics Corp.), 10 nanograms/ml TPA, 2 mM CaCl2, 5 micrograms/ml insulin and 0.1 mM IBMX (Sigma).
(§3) Cells were harvested with 0.25% trypsin and counted on a Coulter Counter (Coulter Instruments). Viability was determined by trypan blue exclusion. DNA synthesis was measured by labelling with (methyl-^3H)-thymidine (2.5 mCi/ml, 20 Ci/mmol, DuPont-New England Nuclear) added to the medium during the last 4 hours of incubation. Melanocytes were harvested using a Ph.D. cell harvester (Cambridge Research Inc.). the amount of radioactivity incorporated was determined by liquid scintillation counting (LS5000TD. Beckman Instruments).
as §1

normal human melanocytes [2] = settings: FIG. 2; 500 mJ/cm^2 UV-B; up to 24 hours after irradiation
Procedure: as §2, §3, §1

NF Kappa B = assay: Gel mobility shift assay of NF Kappa B DNA binding activity in nuclear extracts of UV-B irradiated melanocytes; type: cell-based, human
Procedure: In summary, gel mobility shift assay using a NF Kappa B consensus sequence was performed to determine DNA binding activity of nuclear extracts from four normal Caucasian melanocyte (NCM) lines.
Cells were grown to approximately 50-60% confluency and treated as described in the experimental protocol described in section (i) below. The cells were allowed to swell in hypotonic buffer (10 mM HEPES, pH 7.8, 0.1 mM EDTA, 10 mM KCC, 1 mM DTT. PMSF for 15 minutes on ice). Cytosolic protein fraction was obtained after the addition of Nonider P-40 to a final concentration of 0.5% and separation from the nuclei by centrifugation (500×g. for 5 minutes). Nuclear proteins were extracted from the remaining pellet by dialysis with hypertonic buffer ([…], pH 7.9, 350 mM NaCl, 1 Mm DTT, 1 mM PMSF) for 2 hours at 10° C. Isolated nuclear protein was frozen and stored at −80° C. Quantitation was calculated from optical density readings of 230, 260 and 320 wavelengths.
Five microgram samples of each extract were incubated with 10,000 cpm of a ^32p-labelled consensus oligonucleotide of NF Kappa B. Following a 1 hour incubation, samples were electrophoresed in a low ionic strength polyacrylamide gel. Quantitation of protein; DNA complexes was accomplished by densitometry.
as §1

[3] = FIG. 6, 1 ug/ml for 24 hours, then 100 or 500 mJ/cm^2 UV-B, four melanocyte lines

Compound | decrease of C-jun induction versus irradiated melanocytes in complete medium (TPA and IBMX) (c-jun) | RNA levels in the absence of the factor (c-jun) | effect on induction of c-fos by UV-B (c-fos; FIG. 3, 500 mJ/cm^2 UV-B, beta-carotene pre-treatment) | effect on UVB-induced C-fos expression (c-fos; [3]) | effect on DNA synthesis (percent tritiated thymidine incorporation) (normal human melanocytes [1]; FIG. 1, highest beta-carotene dose, 24 hours incubation) | effect on DNA synthesis (percent tritiated thymidine incorporation) (normal human melanocytes [1]; FIG. 1, lower beta-carotene doses, 24 hours incubation) | effect on DNA synthesis at the chosen pre-treatment dose (normal human melanocytes [1]; FIG. 1, pre-treatment dose, 1.0 microgram/ml or 10 μg/ml, 24 hours incubation) | effect of pre-treatment on DNA synthesis after UV-B (normal human melanocytes [1]; FIG. 4, 4 hours after irradiation, 400 mJ/cm^2 of UV-B) | effect of pre-treatment on DNA synthesis (tritiated thymidine incorporation) after UV-B (normal human melanocytes [1]; FIG. 4, 24 hours following 400 mJ/cm^2 of UV-B) | persistence of the viability increase over the time course (normal human melanocytes [2]) | effect on induction of c-jun by UV-B (c-jun; FIG. 3, 24 hours following 500 mJ/cm^2 UV-B irradiation) | increase of c-jun expression by beta-carotene (c-jun; FIG. 3, four hours following 500 mJ/cm^2 UV-B irradiation) | effect on UVB-induced C-jun expression (c-jun; [3]) | effect on NF kappa B DNA binding activity (NF Kappa B; FIG. 7, 100 mJ/cm^2 UV-B) | inhibition at 1 µg/mL (NF Kappa B; Homo sapiens, Melanocyte, light or radiation study, FIG. 8, 500 mJ/cm^2 UV-B, first hour following irradiation, 1.0 ug/ml pre-treatment 24 hours) | protective effect of pre-treatment (NF Kappa B complex) (NF Kappa B; one hour following UVB irradiation at 500 mJ/cm^2, p value less than 0.05, Student's t-test)
CC(C)Cn1c(=O)n(C)c(=O)c2[nH]cnc21 [IBMX, 3-Isobutyl 1-Methyl Xanthine] | approximately 50% | unaffected | – | – | – | – | – | – | – | – | – | – | – | – | – | –
CCCCCCCCCCCCCC(=O)O[C@@H]1[C@@H](C)[C@@]2(O)[C@@H](C=C(CO)C[C@]3(O)C(=O)C(C)=C[C@@H]23)[C@H]2C(C)(C)[C@]12OC(C)=O [TPA, O-Tetradecanoylphorbol 13-acetate] | approximately 50% | unaffected | – | – | – | – | – | – | – | – | – | – | – | – | – | –
CC1=C(/C=C/C(C)=C/C=C/C(C)=C/C=C/C=C(C)/C=C/C=C(C)/C=C/C2=C(C)CCCC2(C)C)C(C)(C)CCC1 [beta-carotene] | – | – | essentially blocked | did not alter | largely inhibited | little or no effect | minimal effect | not seen | increased | remained for the duration of the time course | completely blocked | 11.1 fold | only a slight effect | slightly decreased; also recorded: moderate effect | > 50% | statistically significant protective effect
